Reference: patent US20190381108A1, “COMPOSITION FOR IMPROVING BONE HEALTH, INCLUDING FUNCTIONAL FERMENTED MATERIAL USING OYSTERS” (Jeju National University Industry-Academic Cooperation …, priority 2018, published 2019)

System: RAW 264.7 cells
Test: Production of ROS in cells (DCF-DA, flow cytometry)
Type: cell-based, murine
Settings: RANKL 100 ng/mL; DCF-DA staining
Method: After RAW 264.7 cells were aliquoted at 5×10^4 cells/well into 6-well plates and stabilized for 24 hours, RAW 264.7 cells were induced into differentiation by RANKL (100 ng/mL), treated with FO at each concentration, cultured for 5 days, and then stained at 37° C. for 30 minutes by treatment with 10 μM DCF-DA, and then measured using flow cytometry.
It is known that oxidative stress in cells occurs during the differentiation of osteoclasts induced by RANKL. Therefore, the effects of FO on the production of ROS induced by RANKL was confirmed through DCF-DA staining.

CC(=O)N[C@@H](CS)C(=O)O [NAC]
ROS increased in the osteoclasts treated with RANKL: also similarly observed
